Reference: ChEMBL document CHEMBL5385853, “Design, synthesis, and biological evaluation of novel quinoline derivatives as small molecule mutant EGFR inhibitors targeting resistance in NSCLC: In vitro screening and ADME predictions” (Eur J Med Chem, 2023)
Activity calls are given as the source filed them. No cut-off for these calls is given here.

Columns and labels:
A549 [1] = assay: Anticancer activity against human A549 cells assessed as reduction in cell viability measured after 72 hrs by MTT assay; assay type: functional, cell-based; settings: A549, 72 h
HCC827 = assay: Anticancer activity against human HCC827 cells harboring EGFR E746_A750 del mutant assessed as reduction in cell viability measured after 72 hrs by MTT assay; assay type: functional, cell-based; settings: HCC827, 72 h
NCI-H1975 = assay: Anticancer activity against human NCI-H1975 cells harboring EGFR L858R/T790M mutant assessed as reduction in cell viability measured after 72 hrs by MTT assay; assay type: functional, cell-based; settings: NCI-H1975, 72 h
A549 [2] = assay: Anticancer activity against human A549 cells overexpressing wild type EGFR assessed as reduction in cell viability measured after 72 hrs by MTT assay; assay type: functional, cell-based; settings: A549, 72 h
[3] = biological target: Epidermal growth factor receptor (Homo sapiens, UniProt P00533, L858R/T790M); assay: Inhibition of EGFR L858R/T790M mutant (unknown origin) using poly (Glu,Tyr) as substrate incubated for 40 mins in presence of ATP by Kinase-Glo luminescent analysis
Sequence of Epidermal growth factor receptor (Homo sapiens, UniProt P00533, L858R/T790M) (P00533 25-1210 T790M/L858R limits assumed): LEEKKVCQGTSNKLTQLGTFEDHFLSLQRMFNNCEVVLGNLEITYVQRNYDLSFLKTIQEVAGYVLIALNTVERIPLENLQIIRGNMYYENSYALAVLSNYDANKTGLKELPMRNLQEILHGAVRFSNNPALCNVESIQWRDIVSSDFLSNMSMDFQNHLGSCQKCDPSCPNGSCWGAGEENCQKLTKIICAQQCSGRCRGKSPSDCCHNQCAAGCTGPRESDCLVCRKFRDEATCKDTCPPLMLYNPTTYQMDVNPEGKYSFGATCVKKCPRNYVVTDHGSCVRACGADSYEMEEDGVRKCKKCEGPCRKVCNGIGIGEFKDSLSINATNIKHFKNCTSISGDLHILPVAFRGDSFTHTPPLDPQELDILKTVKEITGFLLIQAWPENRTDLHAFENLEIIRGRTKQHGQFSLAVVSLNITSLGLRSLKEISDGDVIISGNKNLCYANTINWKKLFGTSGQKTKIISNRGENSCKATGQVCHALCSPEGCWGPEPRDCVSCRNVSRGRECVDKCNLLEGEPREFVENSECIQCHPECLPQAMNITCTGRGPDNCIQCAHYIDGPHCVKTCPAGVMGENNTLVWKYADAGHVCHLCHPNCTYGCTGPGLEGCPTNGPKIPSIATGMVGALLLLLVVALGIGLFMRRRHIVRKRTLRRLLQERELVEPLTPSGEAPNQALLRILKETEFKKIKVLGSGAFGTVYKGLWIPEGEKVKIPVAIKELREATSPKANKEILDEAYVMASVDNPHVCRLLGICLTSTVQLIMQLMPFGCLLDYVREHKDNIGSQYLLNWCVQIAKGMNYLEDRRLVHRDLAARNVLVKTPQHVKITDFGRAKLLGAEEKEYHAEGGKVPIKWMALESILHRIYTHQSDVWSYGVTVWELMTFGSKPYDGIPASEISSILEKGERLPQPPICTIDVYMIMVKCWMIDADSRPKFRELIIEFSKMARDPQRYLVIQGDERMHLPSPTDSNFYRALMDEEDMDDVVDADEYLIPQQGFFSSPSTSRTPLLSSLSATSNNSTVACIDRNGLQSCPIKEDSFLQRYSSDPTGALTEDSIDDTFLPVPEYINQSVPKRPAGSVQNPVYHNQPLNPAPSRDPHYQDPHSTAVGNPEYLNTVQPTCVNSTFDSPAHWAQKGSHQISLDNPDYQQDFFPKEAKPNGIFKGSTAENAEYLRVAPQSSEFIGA

[4] = Cytotoxicity against human BEAS-2B cells assessed as reduction in cell viability measured after 72 hrs by MTT assay; assay type: toxicity, cell-based
NSCLC [5] = assay: Induction of apoptosis in human NSCLC assessed as late apoptotic cells at IC50 measured after 24 to 48 hrs by AnnexinV-FITC/PI staining based flow cytometry (reference value: 1.1%); assay type: functional; settings: time 24-48 hrs
NSCLC [6] = assay: Induction of apoptosis in human NSCLC assessed as early apoptotic cells at IC50 measured after 24 to 48 hrs by AnnexinV-FITC/PI staining based flow cytometry (reference value: 2.1%); assay type: functional; settings: time 24-48 hrs
[7] = tested on: Epidermal growth factor receptor (Homo sapiens), P00533 [UNDEFINED MUTATION]; assay: Inhibition of EGFR E746_A750 del mutant in human HCC827 cells assessed as inhibition of Akt phosphorylation at 0.01 to 1 uM by western blot analysis; assay type: cell-based; settings: dose 0.01-1 µM
Sequence of Epidermal growth factor receptor (Homo sapiens), P00533 [UNDEFINED MUTATION] (P00533 whole entry, looked up, stated change not applied): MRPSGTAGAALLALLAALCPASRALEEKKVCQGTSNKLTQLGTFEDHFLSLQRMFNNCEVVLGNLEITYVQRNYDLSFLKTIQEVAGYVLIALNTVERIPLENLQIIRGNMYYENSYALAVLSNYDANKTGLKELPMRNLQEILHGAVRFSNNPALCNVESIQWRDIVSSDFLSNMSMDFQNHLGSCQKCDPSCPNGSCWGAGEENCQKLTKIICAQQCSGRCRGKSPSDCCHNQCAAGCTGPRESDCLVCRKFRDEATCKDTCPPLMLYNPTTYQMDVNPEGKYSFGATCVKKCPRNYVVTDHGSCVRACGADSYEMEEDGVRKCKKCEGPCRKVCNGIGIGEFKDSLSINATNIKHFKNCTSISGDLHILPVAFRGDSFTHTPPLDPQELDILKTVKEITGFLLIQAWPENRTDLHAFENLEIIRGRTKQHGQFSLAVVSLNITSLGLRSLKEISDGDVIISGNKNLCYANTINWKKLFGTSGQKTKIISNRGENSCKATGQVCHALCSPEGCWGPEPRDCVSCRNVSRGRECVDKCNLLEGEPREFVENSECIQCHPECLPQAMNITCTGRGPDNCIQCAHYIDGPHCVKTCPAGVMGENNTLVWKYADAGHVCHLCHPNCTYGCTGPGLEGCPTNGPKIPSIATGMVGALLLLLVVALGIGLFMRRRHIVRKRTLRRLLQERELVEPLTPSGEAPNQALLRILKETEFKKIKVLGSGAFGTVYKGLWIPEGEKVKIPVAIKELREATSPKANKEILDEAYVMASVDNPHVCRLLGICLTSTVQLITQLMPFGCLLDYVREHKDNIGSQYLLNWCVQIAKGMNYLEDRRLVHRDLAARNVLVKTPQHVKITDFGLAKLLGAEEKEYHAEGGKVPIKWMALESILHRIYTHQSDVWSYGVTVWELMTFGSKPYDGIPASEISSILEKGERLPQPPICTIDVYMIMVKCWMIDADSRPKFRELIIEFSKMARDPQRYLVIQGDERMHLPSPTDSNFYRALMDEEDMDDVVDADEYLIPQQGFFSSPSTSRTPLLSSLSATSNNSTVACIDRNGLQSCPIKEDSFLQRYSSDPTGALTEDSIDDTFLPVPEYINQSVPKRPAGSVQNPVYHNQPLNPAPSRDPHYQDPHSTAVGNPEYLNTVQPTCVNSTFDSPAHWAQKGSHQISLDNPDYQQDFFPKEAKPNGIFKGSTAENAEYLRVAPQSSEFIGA

[8] = biological target: Epidermal growth factor receptor (Homo sapiens, UniProt P00533); assay: Inhibition of EGFR (unknown origin)
Sequence of Epidermal growth factor receptor (Homo sapiens, UniProt P00533) (P00533 whole entry): as the sequence (P00533 whole entry, looked up, stated change not applied) above

CCOC(=O)c1c(-n2ccnc2)nc2ccc(Br)cc2c1N1CCN(c2ccccc2NS(=O)(=O)c2ccc(I)cc2)CC1 gave an IC50 (A549 [1]) of 9.18 µM, an IC50 (HCC827) of 0.29 µM and an IC50 (NCI-H1975) of 2.88 µM. For the same molecule, the IC50 (A549 [2]) was 5.6 µM.

With CCOC(=O)c1c(-n2ccnc2)nc2ccc(Br)cc2c1N1CCN(c2ccccc2NC(=O)c2cccc(Br)c2)CC1 the IC50 (A549 [1]) was 8.58 µM, the IC50 (HCC827) was 0.16 µM and the IC50 (NCI-H1975) was 2.82 µM. It also gave an IC50 (A549 [2]) of 4.92 µM.

CCOC(=O)c1c(-n2ccnc2)nc2ccc(Br)cc2c1N1CCN(c2ccccc2NS(=O)(=O)c2ccc(C(F)(F)F)cc2)CC1 showed an IC50 (A549 [1]) of 2.99 µM, an IC50 [3] of 0.138 µM and an IC50 (HCC827) of 0.01 µM. For the same molecule, the IC50 at 72 h [4] was 85.1 µM, the Activity (NSCLC [5]) was 4.2% and the IC50 (NCI-H1975) was 0.21 µM. For the same molecule, the Activity (NSCLC [6]) was 26.8%, the inhibition [7] was “inactive” and the IC50 (A549 [2]) was 0.99 µM.

For CCOC(=O)c1c(-n2ccnc2)nc2ccc(Br)cc2c1N1CCN(c2ccccc2NS(=O)(=O)c2ccccc2F)CC1, the IC50 (A549 [1]) was 4.87 µM, the IC50 [3] was 0.144 µM and the IC50 (HCC827) was 0.05 µM. The IC50 (NCI-H1975) was 0.86 µM, the inhibition [7] was “inactive” and the IC50 (A549 [2]) was 2.41 µM.

CCOC(=O)c1c(-n2ccnc2)nc2ccc(Br)cc2c1N1CCN(c2ccccc2NS(=O)(=O)c2ccc(C(C)(C)C)cc2)CC1 gave an IC50 (A549 [1]) of 15.1 µM, an IC50 (HCC827) of 0.96 µM and an IC50 (NCI-H1975) of 11.8 µM. It also gave an IC50 (A549 [2]) of 10.8 µM.

CCOC(=O)c1c(-n2ccnc2)nc2ccc(Br)cc2c1N1CCN(c2ccccc2[N+](=O)[O-])CC1 gave an IC50 (A549 [1]) of 10.1 µM, an IC50 (HCC827) of 0.28 µM and an IC50 (NCI-H1975) of 4.43 µM. It also gave an IC50 (A549 [2]) of 6.09 µM.

With COc1cc2ncc(C#N)c(Nc3cccc(Br)c3)c2cc1OC the IC50 [8] was 0.0075 µM.

CCOC(=O)c1c(-n2ccnc2)nc2ccc(Br)cc2c1N1CCN(c2ccccc2NS(=O)(=O)c2ccc(S(C)(=O)=O)cc2)CC1 gave an IC50 (A549 [1]) of 14.6 µM, an IC50 (HCC827) of 0.89 µM and an IC50 (NCI-H1975) of 11.1 µM. For the same molecule, the IC50 (A549 [2]) was 10.3 µM.

In the case of CCOC(=O)c1c(-n2ccnc2)nc2ccc(Br)cc2c1N1CCN(c2ccccc2NS(=O)(=O)c2ccc(F)c(F)c2)CC1, the IC50 (A549 [1]) is reported as 3.09 µM, the IC50 [3] is reported as 0.159 µM and the IC50 (HCC827) is reported as 0.099 µM. The IC50 at 72 h [4] was 45.8 µM, the IC50 (NCI-H1975) was 0.77 µM and the IC50 (A549 [2]) was 1.09 µM.

With CCOC(=O)c1c(-n2ccnc2)nc2ccc(Br)cc2c1N1CCN(c2ccccc2NC(=O)c2cc(F)ccc2I)CC1 the IC50 (A549 [1]) was 6.98 µM, the IC50 (HCC827) was 0.11 µM and the IC50 (NCI-H1975) was 2.18 µM. For the same molecule, the IC50 (A549 [2]) was 4.3 µM.

With CCOC(=O)c1c(-n2ccnc2)nc2ccc(Br)cc2c1N1CCN(c2ccccc2NS(=O)(=O)c2ccc(OC)cc2)CC1 the IC50 (A549 [1]) was 10.2 µM, the IC50 (HCC827) was 0.38 µM and the IC50 (NCI-H1975) was 4.8 µM. The IC50 (A549 [2]) was 6.11 µM.

C=CC(=O)Nc1cc(Nc2nccc(-c3cn(C)c4ccccc34)n2)c(OC)cc1N(C)CCN(C)C [OSIMERTINIB] showed an IC50 (A549 [1]) of 2.67 µM, an IC50 (HCC827) of 0.004 µM and an IC50 (NCI-H1975) of […]. For the same molecule, the IC50 (A549 [2]) was […].

With CCOC(=O)c1c(-n2ccnc2)nc2ccc(Br)cc2c1N1CCN(c2ccccc2NS(=O)(=O)c2ccc(Cl)cc2)CC1 the IC50 (A549 [1]) was 8.36 µM, the IC50 (HCC827) was 0.22 µM and the IC50 (NCI-H1975) was 2.86 µM. For the same molecule, the IC50 (A549 [2]) was 5.64 µM.

Molecule CCOC(=O)c1c(-n2ccnc2)nc2ccc(Br)cc2c1N1CCNCC1 has an IC50 (A549 [1]) of 16.2 µM, an IC50 (HCC827) of 2.45 µM and an IC50 (NCI-H1975) of 15.2 µM. It also gave an IC50 (A549 [2]) of 11.4 µM.

CCOC(=O)c1c(-n2ccnc2)nc2ccc(Br)cc2c1N1CCN(c2ccccc2NS(=O)(=O)c2ccc(Br)cc2)CC1 showed an IC50 (A549 [1]) of 8.22 µM, an IC50 (HCC827) of 0.22 µM and an IC50 (NCI-H1975) of 2.86 µM. It also gave an IC50 (A549 [2]) of 5.02 µM.

Molecule N#Cc1c(-c2ccc3ncc(C(N)=O)c(Nc4cccc(Br)c4)c3c2)csc1N has an IC50 [8] of 0.49 µM.

CCOC(=O)c1c(-n2ccnc2)nc2ccc(Br)cc2c1N1CCN(c2ccccc2NC(=O)c2cc(F)ccc2Br)CC1 showed an IC50 (A549 [1]) of 7.01 µM, an IC50 (HCC827) of 0.18 µM and an IC50 (NCI-H1975) of 2.69 µM. For the same molecule, the IC50 (A549 [2]) was 4.82 µM.

Molecule CCOC(=O)c1c(-n2ccnc2)nc2ccc(Br)cc2c1N1CCN(C(=O)OC(C)(C)C)CC1 has an IC50 (A549 [1]) of 14.2 µM, an IC50 (HCC827) of 2.11 µM and an IC50 (NCI-H1975) of 16 µM. The IC50 (A549 [2]) was 12.2 µM.

Work on CCOC(=O)c1c(-n2ccnc2)nc2ccc(Br)cc2c1N1CCN(c2ccccc2NC(=O)c2cccc(OC)c2OC)CC1 yielded an IC50 (A549 [1]) of 11.2 µM, an IC50 (HCC827) of 0.52 µM and an IC50 (NCI-H1975) of 6.14 µM. The IC50 (A549 [2]) was 8.73 µM.

With CCOC(=O)c1c(-n2ccnc2)nc2ccc(Br)cc2c1N1CCN(c2ccccc2N)CC1 the IC50 (A549 [1]) was 16.8 µM, the IC50 (HCC827) was 0.97 µM and the IC50 (NCI-H1975) was 13.1 µM. It also gave an IC50 (A549 [2]) of 11.5 µM.

In the case of CCOC(=O)c1c(-n2ccnc2)nc2ccc(Br)cc2c1N1CCN(c2ccccc2NS(=O)(=O)C2CC2)CC1, the IC50 (A549 [1]) is reported as 11.1 µM, the IC50 (HCC827) is reported as 0.67 µM and the IC50 (NCI-H1975) is reported as 7.16 µM. The IC50 (A549 [2]) was 7.84 µM.

Molecule CCOC(=O)c1c(-n2ccnc2)nc2ccc(Br)cc2c1N1CCN(c2ccccc2NS(=O)(=O)c2ccc(F)cc2)CC1 has an IC50 (A549 [1]) of 4.22 µM, an IC50 [3] of 0.152 µM and an IC50 (HCC827) of 0.062 µM. The IC50 at 72 h [4] was 86.5 µM, the IC50 (NCI-H1975) was 0.82 µM and the IC50 (A549 [2]) was 1.88 µM.

CCOC(=O)c1c(-n2ccnc2)nc2ccc(Br)cc2c1N1CCN(c2ccccc2NC(=O)C2CC(=O)C2)CC1 showed an IC50 (A549 [1]) of 11 µM, an IC50 (HCC827) of 0.1 µM and an IC50 (NCI-H1975) of 0.11 µM. The IC50 (A549 [2]) was 7.94 µM.

CCCc1cc(C(=O)Nc2ccccc2N2CCN(c3c(C(=O)OCC)c(-n4ccnc4)nc4ccc(Br)cc34)CC2)n(C)n1 gave an IC50 (A549 [1]) of 11.5 µM, an IC50 (HCC827) of 0.88 µM and an IC50 (NCI-H1975) of 9.36 µM. It also gave an IC50 (A549 [2]) of 8.22 µM.

With CCOC(=O)c1c(-n2ccnc2)nc2ccc(Br)cc2c1N1CCN(c2ccccc2NC(=O)c2ccccc2F)CC1 the IC50 (A549 [1]) was 8.32 µM, the IC50 (HCC827) was 0.17 µM and the IC50 (NCI-H1975) was 2.81 µM. The IC50 (A549 [2]) was 4.88 µM.

In the case of CCOC(=O)c1c(-n2ccnc2)nc2ccc(Br)cc2c1N1CCN(c2ccccc2NS(=O)(=O)c2ccc(C#N)cc2)CC1, the IC50 (A549 [1]) is reported as 9.11 µM, the IC50 (HCC827) is reported as 0.33 µM and the IC50 (NCI-H1975) is reported as 4.12 µM. It also gave an IC50 (A549 [2]) of 5.82 µM.

Molecule CCOC(=O)c1c(-n2ccnc2)nc2ccc(Br)cc2c1N1CCN(c2ccccc2NS(=O)(=O)c2cccc(C#N)c2)CC1 has an IC50 (A549 [1]) of 9.22 µM, an IC50 (HCC827) of 0.38 µM and an IC50 (NCI-H1975) of 4.3 µM. The IC50 (A549 [2]) was 5.99 µM.
